PMC11755336 (Journal of Pharmaceutical Analysis, 2024)
Where two headings read alike, the source gives them in different places.

How the values were obtained:
AChE [1] = molecular target: AChE (Electrophorus electricus, UniProt O42275); test: biochemical; format: binding
AChE [2] = molecular target: AChE (Homo sapiens, UniProt P22303); test: biochemical; format: biochemical
BV2 cells = test: Aβ phagocytosis assay in BV2 cells; format: cell-based, mice; conditions: versus control group
MAO-A = MAO-A (Homo sapiens, UniProt P21397); test: MAO-A inhibition rate, enhanced Weissbach's method; format: biochemical
MAO-A, sequence (P21397 whole entry): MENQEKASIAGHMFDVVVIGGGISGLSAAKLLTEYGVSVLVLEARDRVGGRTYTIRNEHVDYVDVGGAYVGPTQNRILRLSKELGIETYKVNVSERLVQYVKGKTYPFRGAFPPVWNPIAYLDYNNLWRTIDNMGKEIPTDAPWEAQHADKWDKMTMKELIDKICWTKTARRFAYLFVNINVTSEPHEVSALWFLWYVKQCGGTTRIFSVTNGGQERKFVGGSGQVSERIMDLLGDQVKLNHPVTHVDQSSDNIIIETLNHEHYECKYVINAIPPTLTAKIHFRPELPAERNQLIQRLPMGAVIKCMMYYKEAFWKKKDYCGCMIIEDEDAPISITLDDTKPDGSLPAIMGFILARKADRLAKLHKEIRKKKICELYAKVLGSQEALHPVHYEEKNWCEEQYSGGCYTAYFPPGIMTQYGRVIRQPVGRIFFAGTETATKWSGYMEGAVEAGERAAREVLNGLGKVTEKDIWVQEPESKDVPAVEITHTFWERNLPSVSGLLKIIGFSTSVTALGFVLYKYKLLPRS

[3] = molecular target: recombinant MAO-A from human (Homo sapiens, UniProt P21397); test: SPR affinity detection with MAO-A; format: binding
recombinant MAO-A from human, sequence (P21397 whole entry): as above

[4] = rats, oral KXS 10 mL/kg (4 g/mL), 8 days

AChE (Electrophorus electricus, UniProt O42275), sequence (O42275 24-633): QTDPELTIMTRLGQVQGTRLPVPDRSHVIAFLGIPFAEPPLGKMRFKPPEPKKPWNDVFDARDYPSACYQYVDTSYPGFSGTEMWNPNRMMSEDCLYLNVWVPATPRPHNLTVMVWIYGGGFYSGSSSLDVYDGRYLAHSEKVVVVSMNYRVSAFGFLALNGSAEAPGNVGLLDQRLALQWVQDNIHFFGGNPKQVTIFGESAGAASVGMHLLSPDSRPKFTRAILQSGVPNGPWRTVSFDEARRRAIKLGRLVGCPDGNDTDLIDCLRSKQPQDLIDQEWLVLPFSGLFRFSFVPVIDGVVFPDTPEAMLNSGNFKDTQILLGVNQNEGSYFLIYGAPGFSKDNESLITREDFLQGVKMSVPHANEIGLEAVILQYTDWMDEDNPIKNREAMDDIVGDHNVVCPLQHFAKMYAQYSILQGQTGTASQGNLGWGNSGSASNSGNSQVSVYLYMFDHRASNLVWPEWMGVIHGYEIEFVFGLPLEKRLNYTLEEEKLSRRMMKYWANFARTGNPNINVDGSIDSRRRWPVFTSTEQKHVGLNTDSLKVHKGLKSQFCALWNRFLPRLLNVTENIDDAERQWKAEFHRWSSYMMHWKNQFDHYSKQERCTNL

In the case of `CC(C)(C)c1ccc(O)c(C(C)(C)C)c1` [2,4-Di-tert-butylphenol], the Kd (AChE [1]) is reported as 0.133 µM, the IC50 (AChE [2]) is reported as 4.51 ± 0.191 µM and the “AChE inhibitory rate compared with galantamine” value (AChE [2]; 25 μM) is reported as “surpassed that of galantamine”. The “phagocytic ability of BV2 cells towards FITC-Aβ1−42 (fluorescence intensity)” value (from here on “phagocytic ability”) (BV2 cells) was “notable improvements in phagocytic activity”.
In the case of `COc1cc2c(=O)c3c(O)c([C@@H]4O[C@H](CO)[C@@H](O)[C@H](O)[C@H]4O)c(O)cc3oc2cc1O` [7-O-methylmangiferin], the Kd (AChE [1]; read-out: AChE Affinity KD) is reported as 16.9 µM, the “inhibitory effect on AChE (in words)” value (AChE [2]) is reported as “relatively low” and the IC50 (AChE [2]; read-out: AChE IC50) is reported as 2.98 ± 0.245 µM.
With `CC12CCC(CC1=O)C2(C)C` (stereo not shown) [Camphor] the Kd (AChE [1]) was 0.0251 µM, the AChE inhibition rate (AChE [2]) was “exceeding 80%” and the IC50 (AChE [2]) was 6.23 ± 0.567 µM. The “phagocytic ability” value (BV2 cells) was “effectively enhanced the phagocytic capability”.
For `C#CCN(C)CCCOc1ccc(Cl)cc1Cl` [Clorgyline, reference compound], the “MAO-A inhibition rate (in words)” value (MAO-A) was “highest inhibition rate”.
In the case of `C=CCc1cc(OC)c(OC)c(OC)c1` [Elemicin], the Kd [3] is reported as 4.69 µM, the IC50 (MAO-A) is reported as 62.2 ± 1.08 µM and the “MAO-A inhibition rate (in words)” value (MAO-A; concentrations up to 50 μM) is reported as “comparable inhibition rate”. For the same compound, the “phagocytic ability” value (BV2 cells) was “significantly enhanced phagocytic ability”.
In the case of `C=CCc1ccc(OC)cc1` [Estragole], the Kd [3] is reported as 2.35 µM, the IC50 (MAO-A) is reported as 144 ± 7.43 µM and the “phagocytic ability” value (BV2 cells) is reported as “notable improvements in phagocytic activity”.
With `C=CCc1ccc(OC)c(OC)c1` [Methyl eugenol] the Kd [3] was 5.83 µM, the IC50 (MAO-A) was 96.1 ± 9.87 µM and the “phagocytic ability” value (BV2 cells) was “weaker phagocytic ability”.
With `C/C=C/c1ccc(OC)c(OC)c1` [Methyl isoeugenol] the Kd (AChE [1]) was 0.0185 µM, the IC50 (AChE [2]) was 9.68 ± 0.353 µM and the “phagocytic ability” value (BV2 cells) was “weaker phagocytic ability”.
Compound `O=c1c2cc(O)ccc2oc2cc(O)c([C@@H]3O[C@H](CO)[C@@H](O)[C@H](O)[C@H]3O[C@@H]3OC[C@](O)(CO)[C@H]3O)c(O)c12` [Sibiricaxanthone B] has a Kd (AChE [1]; read-out: AChE Affinity KD) of 1.2 µM.
With `CCCCCCCCCCCCCCCC(=O)OC` [methyl palmitate] the AChE inhibition rate (AChE [2]) was “exceeding 80%” and the “phagocytic ability” value (BV2 cells) was “effectively enhanced the phagocytic capability”.
With `CC1=CCC(O)(C(C)C)CC1` (stereo not shown) [terpinen-4-ol] the “phagocytic ability” value (BV2 cells) was “effectively enhanced the phagocytic capability” and the “phagocytic ability” value (BV2 cells; listed as terpiene-4-ol) was “weaker phagocytic ability”.
In the case of `C/C=C/c1cc(OC)c(OC)cc1OC` [α-asarone], the “detection in brain tissue” value [4] is reported as “found in brain samples” and the “phagocytic ability” value (BV2 cells) is reported as “notable improvements in phagocytic activity”.
With `C/C=C\c1cc(OC)c(OC)cc1OC` [β-asarone] the “detection in brain tissue” value [4] was “found in brain samples” and the “phagocytic ability” value (BV2 cells) was “notable improvements in phagocytic activity”.
